This is an account of results in US20240122905A1, “PHARMACEUTICAL COMPOSITION” (MedinCell S.A., priority 2020, published 2024).

The data set is described as follows: PK1: absolute/subcutaneous bioavailability study of Tacrolimus solution (IV and SC). It is filed as in vivo, female Göttingen minipig. The conditions noted are these: for AUClast/D1 / AUC∞/D1 / Cmax/D1: dose-normalized by actual dose per kg. Here is the method: PK1: A 2-Month Pharmacokinetic Study of Different Sustained-Release Formulations of Tacrolimus after Subcutaneous Administration and Subcutaneous Bioavailability Study of Tacrolimus in Female Göttingen Minipig
Evaluation of the Absolute Bioavailability of Tacrolimus
The dose volume for each animal was 12.5 mL corresponding to a unique dose of 2.5 mg/animal. Solution was administered: • intravenously into the ear vein using 20 mL polypropylene syringe and 23 G butterfly needle. • subcutaneously in a skin fold caudal to the axillar region/shoulder using 20 mL polypropylene syringe and 21 G needle.
Blood samples were collected into EDTA tubes at predose and at different time points: • Intravenous dosing: 5 min (0.083 h), 15 min (0.25 h), 30 min (0.5 h), and 1, 2, 6, 24, 48, 72 and 96 h after end of dosing. • Subcutaneous dosing: 30 min (0.5 h), and 1, 2, 4, 6, 10, 24, 48, 72 and 96 h after end of dosing.
Whole blood samples were analyzed to determine the concentration of the test item using a qualified analytical procedure. 2-Month Pharmacokinetic Study of Sustain-Release Formulations

The mark [1] stands for this setting: Tacrolimus solution 2.5 mg/animal IV.
Setting [2] is: Tacrolimus solution 2.5 mg/animal SC.
Where [3] appears, read: female, Göttingen, minipig, Tacrolimus solution 2.5 mg/animal IV, whole blood.
The mark [4] stands for this setting: female, Göttingen, minipig, Tacrolimus solution 2.5 mg/animal SC, whole blood.

Structures are written as SMILES.

Regarding `C=CC[C@@H]1/C=C(\C)C[C@H](C)C[C@H](OC)[C@H]2O[C@@](O)(C(=O)C(=O)N3CCCC[C@H]3C(=O)OC(/C(C)=C/[C@@H]3CC[C@@H](O)[C@H](OC)C3)[C@H](C)[C@@H](O)CC1=O)[C@H](C)C[C@@H]2OC` (stereo partly shown) [Tacrolimus], under setting [1], the AUClast/D1 came to 17900 ± 1620 kg·ng·h/mL/mg and the “AUC∞/D1” value was found to be 19700 ± 1750 kg·ng·h/mL/mg. The compound also came in with a Clast (Tacrolimus solution 2.5 mg/animal IV, whole blood) of 0.00422 ± 0.00208 µg/mL. For the same compound, for the setting “Tacrolimus solution 2.5 mg/animal IV, whole blood, median (range)”, the tlast is 95.7 (95.7-96.1)^$ h. Under setting [2], the AUClast/D1 came to 17100 ± 1090 kg·ng·h/mL/mg, the “AUC∞/D1” value amounted to 18100 ± 1150 kg·ng·h/mL/mg and the Cmax/D1 was determined as 779 ± 30.8 kg·ng/mL/mg. The same compound returned a Cmax/D1 (Tacrolimus solution 2.5 mg/animal SC, listed as immediate release compound) of 779 kg·ng/mL/mg. For the setting “Tacrolimus solution 2.5 mg/animal SC, whole blood”, this compound came in with a Clast of 0.00289 ± 0.000759 µg/mL. This compound registered a tlast (Tacrolimus solution 2.5 mg/animal SC, whole blood, median) of 96 h. For the same compound, where the note is “female, Göttingen, minipig, whole blood, subcutaneous, Tacrolimus solution 2.5 mg/animal SC vs IV”, the bioavailability came out at 92.4%. Under setting [3], this compound showed an AUC(0-inf) of 2.04 ± 0.258 µg·h/mL, an AUC(0-t) of 1.85 ± 0.224 µg·h/mL and a half-life of 31.5 ± 1.62 h. Besides, under setting [4], the AUC(0-inf) came out at 1.87 ± 0.189 µg·h/mL, the AUC(0-t) was 1.76 ± 0.169 µg·h/mL, the concentration peaked (Cmax) at 0.0802 ± 0.00263 µg/mL and the half-life was 25.7 ± 2.25 h. Also, the Tmax (female, Göttingen, minipig, Tacrolimus solution 2.5 mg/animal SC, whole blood, median) is 4 h.

Usually bioavailability stands for dose-corrected exposure relative to a reference, in per cent. High values mean good availability, low ones poor availability. As a reminder, the AUC(0-inf) is total exposure, with the tail of the curve extrapolated. Usually AUC(0-t) stands for the area under the concentration-time curve up to a stated or last time point. Read a high AUC(0-t) as more exposure. Broadly, the half-life is the time in which the quantity being followed falls by half. High values mean slow decline, low ones rapid decline. The Cmax is the maximum level reached in the sampled fluid or tissue. The Tmax is the time from dosing to the highest level.
